In ChEMBL document CHEMBL1201862, “PubChem BioAssay data set” (2004) one finds IC50, EC50 and AC50 data, which are given here for eight molecules.

Active and inactive are the calls of the source. Some results are limits rather than exact numbers.

The target of test [1] is T1, Ubiquitin-conjugating enzyme E2 N (Homo sapiens, UniProt P61088).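 Note: Dose-response confirmation in a TR-FRET assay detecting UBC13-driven polyubiquitin chain formation, inhibition measured.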
T1 sequence (P61088 whole entry): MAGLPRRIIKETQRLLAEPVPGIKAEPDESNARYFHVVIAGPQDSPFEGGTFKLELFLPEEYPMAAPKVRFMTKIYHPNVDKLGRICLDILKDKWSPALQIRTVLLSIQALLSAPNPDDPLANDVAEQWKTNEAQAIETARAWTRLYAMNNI
In kind it is functional.

For test [2], the target named is Melanocortin receptor 4 (Homo sapiens, UniProt P32245). It is filed as functional, cell-based.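 Note: Cell-based assay with luminescence read-out, confirmatory dose-response testing for agonist activity of biased ligands at MC4R; human U2OS cells with tagged receptor and beta-arrestin; potency of agonists that increase receptor coupling to beta-arrestin.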
Test [3] is described as follows: Glucagon-like peptide 1 release potency, NCI-H716 cell line, dose-response, half-maximal inhibitory concentration (AID 1117344). It is filed as functional, cell-based.
The target of test [4] is T2, DNA repair protein RAD52 homolog (Homo sapiens, UniProt P43351).
T2 sequence (P43351 whole entry): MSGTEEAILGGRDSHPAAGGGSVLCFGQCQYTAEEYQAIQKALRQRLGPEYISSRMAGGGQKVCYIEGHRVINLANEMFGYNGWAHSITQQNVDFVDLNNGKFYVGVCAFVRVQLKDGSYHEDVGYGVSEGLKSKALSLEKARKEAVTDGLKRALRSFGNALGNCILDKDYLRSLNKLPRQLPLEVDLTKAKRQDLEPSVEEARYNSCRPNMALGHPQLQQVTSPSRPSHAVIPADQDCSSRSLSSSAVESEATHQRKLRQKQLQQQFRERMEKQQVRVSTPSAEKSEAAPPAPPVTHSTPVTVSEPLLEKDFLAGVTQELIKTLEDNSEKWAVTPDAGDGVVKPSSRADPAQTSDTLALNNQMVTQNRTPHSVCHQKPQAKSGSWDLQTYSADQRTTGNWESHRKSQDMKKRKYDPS
It is filed as functional, biochemical.

Test [5] concerns the target T3, Apoptotic protease-activating factor 1 (Homo sapiens, UniProt O14727).
T3 sequence (O14727 whole entry): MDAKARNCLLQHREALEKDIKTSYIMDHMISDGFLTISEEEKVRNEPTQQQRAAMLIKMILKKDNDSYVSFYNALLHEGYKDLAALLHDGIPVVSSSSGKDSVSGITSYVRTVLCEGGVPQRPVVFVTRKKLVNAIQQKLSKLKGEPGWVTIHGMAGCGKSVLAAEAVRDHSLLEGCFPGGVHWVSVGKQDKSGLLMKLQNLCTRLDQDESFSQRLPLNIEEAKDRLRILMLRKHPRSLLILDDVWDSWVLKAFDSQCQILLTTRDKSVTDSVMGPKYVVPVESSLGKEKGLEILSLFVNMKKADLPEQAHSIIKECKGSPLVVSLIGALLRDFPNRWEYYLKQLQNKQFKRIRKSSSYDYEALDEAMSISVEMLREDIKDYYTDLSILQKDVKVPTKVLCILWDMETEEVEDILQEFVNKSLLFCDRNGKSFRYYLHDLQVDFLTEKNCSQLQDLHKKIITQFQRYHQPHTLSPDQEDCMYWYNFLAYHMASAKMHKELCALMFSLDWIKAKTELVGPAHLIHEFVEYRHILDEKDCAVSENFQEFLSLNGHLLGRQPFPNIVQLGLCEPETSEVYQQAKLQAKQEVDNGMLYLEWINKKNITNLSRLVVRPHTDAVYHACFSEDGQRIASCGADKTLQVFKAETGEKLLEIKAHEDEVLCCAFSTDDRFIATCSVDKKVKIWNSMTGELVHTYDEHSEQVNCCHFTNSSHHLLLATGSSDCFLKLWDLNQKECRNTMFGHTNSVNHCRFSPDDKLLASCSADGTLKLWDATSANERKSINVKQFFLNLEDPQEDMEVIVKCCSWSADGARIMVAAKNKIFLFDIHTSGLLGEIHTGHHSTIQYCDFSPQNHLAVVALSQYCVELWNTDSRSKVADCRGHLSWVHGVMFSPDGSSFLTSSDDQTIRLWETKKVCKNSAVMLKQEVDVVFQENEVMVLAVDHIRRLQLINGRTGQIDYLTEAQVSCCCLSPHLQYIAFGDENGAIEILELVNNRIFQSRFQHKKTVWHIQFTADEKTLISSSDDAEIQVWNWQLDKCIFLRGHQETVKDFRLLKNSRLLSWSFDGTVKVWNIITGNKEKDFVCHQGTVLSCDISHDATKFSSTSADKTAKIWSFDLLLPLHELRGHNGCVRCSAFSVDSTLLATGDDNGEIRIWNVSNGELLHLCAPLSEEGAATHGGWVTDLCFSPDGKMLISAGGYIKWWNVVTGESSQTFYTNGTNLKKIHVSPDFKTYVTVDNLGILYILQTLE
It is filed as functional.

Test [6] in a line: half-maximal inhibitory concentration for glucagon-like peptide-1 release, STC-1 cell line, dose-response (AID 1117345). It is filed as functional, cell-based.
The subject of test [7] is HEK293. Kind of test: HEK293T cell cytotoxicity, dose response, cytotoxicity control, ATP luminescence, cherry-pick samples (AID 687005).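 Note: cells exposed to compound for 48 hours.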 As to conditions: Homo sapiens. In kind it is functional, cell-based.
A short description of test [8]: HEK293 Cytotoxicity Assay Measured in Cell-Based System Using Plate Reader - 7071-01_Inhibitor_Dose_CherryPick_Activity_Set2. In kind it is functional.
Test [9] has as its target Paired box protein Pax-8 (Homo sapiens, UniProt Q06710). Kind of test: inhibitors of PAX8-driven TPO luciferase reporter, dose response, RMG-I cells, cherry-pick (AID 687027).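 Note: luciferase reporter driven by Pax8 target thyroperoxidase promoter measured by SteadyGlo luminescence.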 It is filed as functional, cell-based. (A reporter such as luciferase makes a cellular process visible.)
Test [10] in a line: NIH:OVCAR-3 ovarian cancer cell cytotoxicity, dose response, PAX8 inhibitor project, plate reader, dry powder samples (AID 743044). In kind it is functional, cell-based.
Test [11] is described as follows: A2780 ovarian cancer cell cytotoxicity, dose response, cytotoxicity control, plate reader, dry powder samples (AID 743046). In kind it is functional, cell-based.
The target in test [12] is NAD-dependent protein deacylase sirtuin-5, mitochondrial (Homo sapiens, UniProt Q9NXA8). The test can be described thus: SIRT5 deacylase inhibitors, dose response, biochemical, fluorescence imaging, cherry-pick, set 6 (AID 720597).
Test [13] in a line: ADAM10 inhibitors, peptide cleavage, dose response, biochemical, QFRET (AID 743254).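 Note: ADAM10 enzyme with the DM2 quenched FRET peptide as substrate; EDANS fluorescence gain as the protease cuts the substrate; inhibitor potency against ADAM10 proteolytic activity.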
For test [14], the target named is Disintegrin and metalloproteinase domain-containing protein 17 (Homo sapiens, UniProt P78536). The test can be described thus: ADAM17 protease inhibitors, dose response, counter-screen for ADAM10 exosite inhibitor project, biochemical, quenched FRET substrate (AID 743253). In general terms: Counterscreens check selectivity or assay interference.
Test [15] deals with Sphingosine 1-phosphate receptor 2 (Homo sapiens, UniProt O95136). Kind of test: Dose Response Cell Based Assay for Agonists of the S1P2 Receptor. [Related pubchem assays: 729, 736, 843 ]. It is filed as functional.
Test [16] can be described thus: Single fluorophore orthopox expression reporter, late gene expression Measured in Cell-Based and Microorganism Combination System Using Plate Reader - 2142-08_Inhibitor_Dose_DryPowder_Activity. It is filed as functional.
A short description of test [17]: inhibitors of orthopox intermediate gene expression, dose response, cell-based, single fluorophore reporter, dry powder (AID 1117271). In kind it is functional.
Test [18] is described as follows: A549 cell cytotoxicity, dose response, CellTiter-Glo luminescence, dry powder, set 17 (AID 1117284). It is filed as functional, cell-based. (In ATP-based viability assays light output follows the ATP content of the culture.)
The nature of test [19]: Orthopox viral replication plaque formation Measured in Cell-Based and Microorganism Combination System Using Imaging - 2142-05_Inhibitor_Dose_DryPowder_Activity. In kind it is functional.
The nature of test [20]: cells. In kind it is functional, cell-based. The note with it: INS-1E.
Test [21] in a line: Dose-response inhibition of insulin secretion in a rat insulinoma line at 5 mM glucose (AID 1117331). It is filed as functional, cell-based. The note with it: INS-1E.
Test [22] can be described thus: HeLa 2N DNA content increase, dose response, cell-based, IC50 (AID 1117349). In kind it is functional.
Test [23] is described as follows: HeLa 4N DNA content increase, dose response, cell-based, IC50 (AID 1117351). It is filed as functional.

Sequence of Sphingosine 1-phosphate receptor 2 (O95136 whole entry): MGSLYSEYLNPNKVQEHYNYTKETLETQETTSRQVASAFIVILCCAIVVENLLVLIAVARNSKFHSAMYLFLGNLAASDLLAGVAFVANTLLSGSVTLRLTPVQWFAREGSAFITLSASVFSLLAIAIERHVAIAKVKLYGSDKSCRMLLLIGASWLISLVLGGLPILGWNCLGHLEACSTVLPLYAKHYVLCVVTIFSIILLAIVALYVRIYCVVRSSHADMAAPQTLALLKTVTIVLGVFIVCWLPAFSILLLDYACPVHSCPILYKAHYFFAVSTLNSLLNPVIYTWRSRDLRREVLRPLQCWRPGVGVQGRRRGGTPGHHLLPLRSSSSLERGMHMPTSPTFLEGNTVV
Sequence of NAD-dependent protein deacylase sirtuin-5, mitochondrial (Q9NXA8 whole entry): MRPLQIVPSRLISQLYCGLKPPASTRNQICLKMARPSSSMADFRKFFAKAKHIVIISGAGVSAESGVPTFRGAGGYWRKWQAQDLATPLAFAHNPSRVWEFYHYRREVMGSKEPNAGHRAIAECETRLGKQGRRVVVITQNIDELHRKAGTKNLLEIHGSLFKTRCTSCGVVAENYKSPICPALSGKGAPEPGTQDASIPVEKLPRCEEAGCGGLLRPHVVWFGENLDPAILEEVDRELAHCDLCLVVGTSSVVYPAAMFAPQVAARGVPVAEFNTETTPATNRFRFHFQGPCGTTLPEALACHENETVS
Sequence of Disintegrin and metalloproteinase domain-containing protein 17 (P78536 whole entry, the tested form may be a part): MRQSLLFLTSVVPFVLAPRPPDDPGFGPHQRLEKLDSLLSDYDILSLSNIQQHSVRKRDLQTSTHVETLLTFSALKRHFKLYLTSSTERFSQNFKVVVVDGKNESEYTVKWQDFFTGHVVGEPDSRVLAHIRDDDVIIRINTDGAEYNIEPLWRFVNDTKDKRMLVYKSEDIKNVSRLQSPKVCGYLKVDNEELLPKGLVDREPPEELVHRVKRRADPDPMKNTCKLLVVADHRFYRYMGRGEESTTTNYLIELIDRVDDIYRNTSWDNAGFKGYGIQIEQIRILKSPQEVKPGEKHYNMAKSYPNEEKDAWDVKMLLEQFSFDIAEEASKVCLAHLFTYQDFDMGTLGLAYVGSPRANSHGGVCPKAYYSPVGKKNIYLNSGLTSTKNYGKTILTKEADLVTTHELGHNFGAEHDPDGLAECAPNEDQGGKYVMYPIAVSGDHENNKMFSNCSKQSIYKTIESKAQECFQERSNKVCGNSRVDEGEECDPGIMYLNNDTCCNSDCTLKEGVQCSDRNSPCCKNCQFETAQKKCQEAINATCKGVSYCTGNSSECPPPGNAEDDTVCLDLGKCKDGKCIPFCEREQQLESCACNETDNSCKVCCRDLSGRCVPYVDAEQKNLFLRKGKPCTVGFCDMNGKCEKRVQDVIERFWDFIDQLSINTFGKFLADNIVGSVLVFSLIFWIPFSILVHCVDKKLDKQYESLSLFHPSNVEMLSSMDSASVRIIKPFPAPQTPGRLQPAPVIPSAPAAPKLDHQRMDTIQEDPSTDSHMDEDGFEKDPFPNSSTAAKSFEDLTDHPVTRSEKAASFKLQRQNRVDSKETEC
Sequence of Paired box protein Pax-8 (Q06710 whole entry): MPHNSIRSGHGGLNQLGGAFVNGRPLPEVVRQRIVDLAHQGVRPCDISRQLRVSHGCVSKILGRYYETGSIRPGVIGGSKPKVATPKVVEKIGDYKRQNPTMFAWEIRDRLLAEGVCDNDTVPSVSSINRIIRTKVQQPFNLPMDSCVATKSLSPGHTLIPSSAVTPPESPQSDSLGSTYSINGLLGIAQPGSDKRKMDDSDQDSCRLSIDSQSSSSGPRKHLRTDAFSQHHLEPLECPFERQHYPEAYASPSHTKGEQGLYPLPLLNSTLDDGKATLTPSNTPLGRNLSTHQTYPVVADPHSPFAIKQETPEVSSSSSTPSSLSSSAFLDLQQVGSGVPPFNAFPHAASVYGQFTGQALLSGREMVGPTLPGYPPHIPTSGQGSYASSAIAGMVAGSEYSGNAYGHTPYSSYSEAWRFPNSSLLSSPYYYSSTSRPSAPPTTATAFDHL
Sequence of Melanocortin receptor 4 (P32245 whole entry): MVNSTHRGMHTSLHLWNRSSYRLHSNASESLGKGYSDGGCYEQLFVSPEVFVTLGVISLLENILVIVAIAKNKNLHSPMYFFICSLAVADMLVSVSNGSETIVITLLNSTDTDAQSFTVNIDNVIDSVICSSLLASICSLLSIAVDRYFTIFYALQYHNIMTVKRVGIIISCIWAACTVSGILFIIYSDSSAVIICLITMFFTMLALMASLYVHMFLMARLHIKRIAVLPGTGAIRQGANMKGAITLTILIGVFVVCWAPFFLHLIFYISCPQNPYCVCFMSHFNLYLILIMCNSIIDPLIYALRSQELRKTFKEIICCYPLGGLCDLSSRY

One may read the IC50 as the concentration needed to halve the response being measured. By EC50 is commonly meant the concentration at which the effect is half-maximal. The AC50 is the midpoint of the concentration-response curve, whichever way the signal moves. Take `CC(C)(C)CC(C)(C)c1ccc(OCCOCC[N+](C)(C)Cc2ccccc2)cc1` [BENZETHONIUM CHLORIDE]: the IC50 in test [1] was > 20 µM (inactive); in [3] it was 21.9 µM (inactive); in test [5] it was 23.5 µM (active); in test [6] it was 13.8 µM (inactive). In addition, in test [2], the EC50 was > 89.2 µM (inactive). Moreover, the AC50 in test [4] is 31.3 µM (active).

For `COC(=O)C1=C(C)N(Cc2ccc(Cl)cc2)C(=S)NC1c1cccc(F)c1` (stereo not drawn), the AC50 in test [7] and in [8] was 21.4 µM (active) each time.

As to `CC(C)(C)[S+]([O-])N1Cc2cc(C(=O)NCCCN3CCOCC3)nc(-c3cccc(C#CCC4CCCC4)c3)c2[C@@H]1CCO` (stereo partly drawn), the AC50 is 24 µM (active) in test [9], 40.4 µM (active) in test [10] and 4.02 µM (active) in test [11].

With `CCC(=O)N1C[C@@H](C)[C@@H](OC)CN(C)C(=O)c2cc(NC(=O)CC(F)(F)F)ccc2OC[C@@H]1C`, the AC50 in [12] is 4 µM (active).

On to `O=C(NC(Cc1c[nH]c2ccccc12)C(=O)Nc1ccc(OC(F)(F)F)cc1)c1cccs1` (stereo not drawn), for which the IC50 in test [13] is 11 µM (inactive); in test [14], > 69.5 µM (inactive).

With `Cc1ccc(CNC(=O)CCNC(=O)c2ccco2)cc1`, in test [15], the EC50 is listed as > 50 µM (not active).

As to `C[C@@H](O)C#Cc1ccc2c(c1)O[C@@H](CN(C)Cc1ccc(-c3ccccc3Cl)cc1)[C@@H](C)CN([C@@H](C)CO)S2(=O)=O`, the AC50 in test [16] is 1.18 µM (active); in [17], 1.43 µM (active); in test [18] it was > 52 µM (inactive); in test [19], 0.601 µM (active).

With `Nc1ccc2cc3ccc(N)cc3nc2c1` [PROFLAVINE HEMISULFATE], the IC50 is > 33.3 µM (inactive) in test [20], 20.6 µM (inactive) in test [21], > 10 µM (inactive) in test [22] and > 10 µM (inactive) in test [23].
